Measurements published in patent publication US6737085B2, “Apocynum venetum extract for use as antidepressant” (Tokiwa Phytochemical Co., Ltd., priority 2000, dated 2004).
Where a name gives a salt, the structure may show the parent alone.

Key:
Male CD rats [1] = test: forced swimming test, acute administration; format: in vivo
Procedure: A common method for evaluating antidepressant effect called as the forced swimming test (Porsolt et al., Nature. 266, 730-732, (1977)) was used as follows. Male CD rats (230-250 g) were used in the tests. Forty animals were divided into groups of 8 animals treated with 30 mg/kg imipramine, 125 mg/kg, 250 mg/kg and 500 mg/kg Apocynum extract and purified water. Test solutions were orally administered 24 h, 5 h and 1 h before testing. Rats were forced to swim for 15 min in a Plexiglas cylinder (40×18 cm i.d.) containing water at 25° C. at a level of 17 cm so that they preliminarily learned that they could not escape from the cylinder. […] All the tests were performed between 1-3 p.m. The images in the tapes were evaluated by a person who was not aware of the treatment of each group.
Test solutions were prepared by dissolving or suspending Apocynum extract prepared in Example 2 in purified water or dissolving imipramine-HCl (imipramine is a known tricyclic antidepressant) in purified water, and administered at a dose of 10 ml/kg body weight. The results from 8 experimental animals in each group were expressed in mean ”SEM. Statistic significance as compared with control group was determined by ANOVA and multiple comparison tests were made by Fisher-PLSD (p<0.05:*).

Male CD rats [2] = test: forced swimming test, repeated administration; format: in vivo
Procedure: A common method for evaluating antidepressant effect called as the forced swimming test (Porsolt et al., Nature. 266, 730-732, (1977)) was used in the same manner as in Example 3. Male CD rats (230-250 g) were used in the tests. Forty animals were divided into groups of 8 animals treated with 20 mg/kg imipramine, 30 mg/kg, 60 mg/kg and 125 mg/kg Apocynum extract and purified water. Test solutions were orally administered between 3-4 p.m. daily. Rats were forced to swim for 15 min in a Plexiglas cylinder (40×18 cm i.d.) containing water at 25° C. at a level of 17 cm so that they preliminarily learned that they could not escape from the cylinder. […] All the tests were performed between 1-3 p.m. The images in the tapes were evaluated by a person who was not aware of the treatment of each group.
Test solutions were prepared by dissolving or suspending Apocynum extract prepared in Example 2 in purified water or dissolving imipramine-HCl (imipramine is a known tricyclic antidepressant) in purified water, and administered at a dose of 10 ml/kg body weight. The results from 8 experimental animals in each group were expressed in mean±SEM. Statistic significance as compared with control group was determined by ANOVA and multiple comparison tests were made by Fisher-PLSD (p<0.05:*).

CN(C)CCCN1c2ccccc2CCc2ccccc21 [Imipramine, imipramine-HCl]
Inactive period (seconds) (Male CD rats [1]; 30 mg/kg orally 24 h, 5 h and 1 h before testing, 5 min swim, mean±SEM, n=8, control 209 ± 20, * p<0.05): 137 ± 18* seconds
inactive period as compared with control group (Male CD rats [1]; 30 mg/kg, acute oral administration, ANOVA, Fisher-PLSD p<0.05): significantly shortened
Inactive period (seconds) (Male CD rats [2]; 20 mg/kg orally daily, repeated, 5 min swim 1 h after final administration, mean±SEM, n=8, control 161.54 ± 16.5, * p<0.05): 97.91 ± 9.6* seconds
inactive period as compared with control group (Male CD rats [2]; 20 mg/kg, repeated oral administration, ANOVA, Fisher-PLSD p<0.05): significantly shortened
